One assay relates to Hs578T. Briefly: Wound healing migration assay. Format: cell-based. To be noted: Homo sapiens, Hs-578T; HS578T cell line; Table Ib. Put shortly: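 Cells seeded at 150000/24 well, grown to monolayer overnight, scratched with a pipette tip, then treated with compound at 12.5, 6.25 or 3.125 μM versus DMSO. Stopped by crystal violet fixation at 48-72 h once control wounds closed; IC50 taken as 50% wound size between t0 and t48 or t72.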

Assay [1] addresses T1, wild type AXL (wtAXL) receptor tyrosine kinase (Homo sapiens, UniProt P30530).
T1 construct: WtAXL cDNA was cloned into vector pLXSN(ESK) and transfected into Phoenix E packaging cells; expressed in transfected cells; host or cells: NIH3T3 N7 (mouse fibroblasts), retrovirally infected, clone 22
T1 sequence (P30530 26-894): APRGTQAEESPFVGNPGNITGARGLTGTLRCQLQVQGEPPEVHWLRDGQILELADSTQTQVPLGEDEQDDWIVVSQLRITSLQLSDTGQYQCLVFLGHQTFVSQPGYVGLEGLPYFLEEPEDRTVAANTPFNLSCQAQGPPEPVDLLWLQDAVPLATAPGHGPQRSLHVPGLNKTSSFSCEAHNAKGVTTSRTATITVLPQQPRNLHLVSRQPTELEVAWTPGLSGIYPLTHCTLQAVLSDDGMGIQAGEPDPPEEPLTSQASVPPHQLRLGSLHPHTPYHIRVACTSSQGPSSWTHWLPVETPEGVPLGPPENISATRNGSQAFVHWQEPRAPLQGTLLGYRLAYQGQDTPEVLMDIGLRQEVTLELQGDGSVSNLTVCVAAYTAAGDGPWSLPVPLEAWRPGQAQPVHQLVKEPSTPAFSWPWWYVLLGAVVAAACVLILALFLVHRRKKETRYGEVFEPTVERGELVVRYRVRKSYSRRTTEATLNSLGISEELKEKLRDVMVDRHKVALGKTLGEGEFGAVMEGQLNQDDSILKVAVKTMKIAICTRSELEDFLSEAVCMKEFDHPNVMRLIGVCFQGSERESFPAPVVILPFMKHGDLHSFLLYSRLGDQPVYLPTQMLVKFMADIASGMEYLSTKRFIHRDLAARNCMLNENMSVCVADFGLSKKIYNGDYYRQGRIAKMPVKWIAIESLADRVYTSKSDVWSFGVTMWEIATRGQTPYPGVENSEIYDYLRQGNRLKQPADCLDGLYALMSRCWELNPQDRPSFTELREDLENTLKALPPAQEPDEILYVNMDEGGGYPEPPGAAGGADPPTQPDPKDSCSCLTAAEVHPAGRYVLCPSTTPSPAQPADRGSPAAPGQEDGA
Briefly: NIH-3T3-AXL cellular kinase assay (pY-AXL-ELISA). The assay is classed as cell-based. The conditions noted are these: NIH-3T3-AXL (clone 22) cells, serum depleted, compounds 1 h; Table Ia. Put shortly:
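NIH3T3 cells stably expressing human wild-type AXL (retroviral, puromycin-selected clones) were treated with serial compound dilutions for 1 h and lysed. AXL tyrosine phosphorylation was measured by ELISA on the lysates: biotinylated 4G10 anti-phosphotyrosine, streptavidin-alkaline phosphatase, AttoPhos fluorescence at 430/560 nm after 90 min.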
(In general: ELISA stands for enzyme-linked immunosorbent assay.)

pIC50: −log10 of the molar value.

Broadly, the pIC50 is the negative decadic logarithm of the IC50, by convention in mol/L. Consider `COc1cc2c(Oc3ccc(NS(=O)(=O)c4cc(F)ccc4F)cc3F)ccnc2cc1OCCCN1CCCCC1` [Example 1, 2,5-Difluoro-N-{3-fluoro-4-[6-methoxy-7-(3-piperidin-1-yl-propoxy)-quinolin-4-yloxy]-phenyl}-benzenesulfonamide], for which, in the assay on Hs578T, the pIC50 is at least 4.90. For `COc1cc2c(Oc3ccc(NS(=O)(=O)c4c(Cl)cccc4Cl)cc3F)ccnc2cc1OCCCN1CCCCC1` [Example 6, 2,6-Dichloro-N-{3-fluoro-4-[6-methoxy-7-(3-piperidin-1-yl-propoxy)-quinolin-4-yloxy]-phenyl}-benzenesulfonamide], the negative logarithm of the IC50 (pIC50) was above 6.30 in assay [1] and at least 4.90 with Hs578T.

In the case of `COc1cc2c(Oc3ccc(NS(=O)(=O)c4ccccc4[N+](=O)[O-])cc3F)ccnc2cc1OCCCN1CCCCC1` [Example 7, N-{3-Fluoro-4-[6-methoxy-7-(3-piperidin-1-yl-propoxy)-quinolin-4-yloxy]-phenyl}-2-nitro-benzenesulfonamide], the pIC50 in assay [1] is above 6.30; in the assay on Hs578T, at least 4.90.

`COc1cc2c(Oc3ccc(NS(=O)(=O)c4cccc(-c5ccccc5)c4)cc3F)ccnc2cc1OCCCN1CCCCC1` [Example 8, Biphenyl-3-sulfonic acid {3-fluoro-4-[6-methoxy-7-(3-piperidin-1-yl-propoxy)-quinolin-4-loxy]-phenyl}-amide]: the pIC50 was above 6.30 in assay [1] and at least 4.90 with Hs578T.

`COc1cc2c(Oc3ccc(NS(=O)(=O)c4cccc(Oc5ccccc5)c4)cc3F)ccnc2cc1OCCCN1CCCCC1` [Example 10, N-{3-Fluoro-4-[6-methoxy-7-(3-piperidin-1-yl-propoxy)-quinolin-4-yloxy]-phenyl}-3-phenoxy-benzenesulfonamide]: the pIC50 in assay [1] was above 6.30; in the assay on Hs578T, at least 4.90. On the same counts, the results for `COc1cc2c(Oc3ccc(NS(=O)(=O)c4c(F)cccc4F)cc3F)ccnc2cc1OCCCN1CCCCC1` [Example 11, 2,6-Difluoro-N-{3-fluoro-4-[6-methoxy-7-(3-piperidin-1-yl-propoxy)-quinolin-4-yloxy]-phenyl}-benzenesulfonamide] are above 6.30 and at least 4.90. With `COc1cc2c(Oc3ccc(NS(=O)(=O)c4cc(F)ccc4F)cc3F)ccnc2cc1OCCCN1CCN(C)CC1` [Example 12, 2,5-Difluoro-N-(3-fluoro-4-{6-methoxy-7-[3-(4-methyl-piperazin-1-yl)-propoxy]-quinolin-4-yloxy}-phenyl)-benzenesulfonamide], the pIC50 was above 6.30 in assay [1] and at least 4.90 in the assay with Hs578T. As to `COc1cc2c(Oc3ccc(NS(=O)(=O)c4cc(Cl)cc(Cl)c4OC)cc3F)ccnc2cc1OCCCN1CCCCC1` [Example 34, 3,5-Dichloro-N-{3-fluoro-4-[6-methoxy-7-(3-piperidin-1-yl-propoxy)-quinolin-4-yloxy]-phenyl}-2-methoxy-benzenesulfonamide], the pIC50 is above 6.30 in assay [1] and at least 4.90 in the assay with Hs578T.

The compound `COc1cc2c(Oc3ccc(NS(=O)(=O)c4cc(Cl)cc(Cl)c4OC)cc3F)ccnc2cc1OCCCN1CCN(C)CC1` [Example 35, 3,5-Dichloro-N-(3-fluoro-4-{6-methoxy-7-[3-(4-methyl-piperazin-1-yl)-propoxy]-quinolin-4-yloxy}-phenyl)-2-methoxy-benzenesulfonamide] gave a pIC50 in assay [1] above 6.30. Take `COc1cc2c(Oc3ccc(NS(=O)(=O)c4ccccc4Cl)cc3F)ccnc2cc1OCCCN1CCCC(C)C1` (stereo not drawn) [Example 38, 2-Chloro-N-(3-fluoro-4-{6-methoxy-7-[3-(3-methyl-piperidin-1-yl)-propoxy]-quinolin-4-yloxy}-phenyl)-benzenesulfonamide]: the pIC50 was above 6.30 in assay [1] and at least 4.90 in the assay on Hs578T. As to `COc1cc2c(Oc3ccc(NS(=O)(=O)c4ccccc4[N+](=O)[O-])cc3F)ccnc2cc1OCCCN1CCCC(C)C1` (stereo not drawn) [Example 40, N-(3-Fluoro-4-{6-methoxy-7-[3-(3-methyl-piperidin-1-yl)-propoxy]-quinolin-4-yloxy}-phenyl)-2-nitro-benzenesulfonamide], the results for the pIC50 (in assay [1]; in the assay on Hs578T) were above 6.30 and at least 4.90, respectively. With `COc1cc2c(Oc3ccc(NS(=O)(=O)c4ccccc4OC(F)(F)F)cc3F)ccnc2cc1OCCCN1CCCC(C)C1` (stereo not drawn) [Example 45, N-(3-Fluoro-4-{6-methoxy-7-[3-(3-methyl-piperidin-1-yl)-propoxy]-quinolin-4-yloxy}-phenyl)-2-trifluoromethoxy-benzenesulfonamide], the pIC50 in assay [1] was above 6.30; in the assay on Hs578T, at least 4.90.

Consider `COc1cc2c(Oc3ccc(NS(=O)(=O)c4ccc(F)cc4F)cc3F)ccnc2cc1OCCCN1CCCC(C)C1` (stereo not drawn) [Example 47, 2,4-Difluoro-N-(3-fluoro-4-{6-methoxy-7-[3-(3-methyl-piperidin-1-yl)-propoxy]-quinolin-4-yloxy}-phenyl)-benzenesulfonamide], for which the negative-log IC50 (pIC50) was above 6.30 in assay [1] and at least 4.90 in the assay with Hs578T.

As to `COc1cc2c(Oc3ccc(NS(=O)(=O)c4ccc(F)c(F)c4F)cc3F)ccnc2cc1OCCCN1CCCC(C)C1` (stereo not drawn) [Example 49, 2,3,4-Trifluoro-N-(3-fluoro-4-{6-methoxy-7-[3-(3-methyl-piperidin-1-yl)-propoxy]-quinolin-4-yloxy}-phenyl)-benzenesulfonamide], the values for the pIC50 (in assay [1]; with Hs578T) were above 6.30 and at least 4.90, respectively. For `COc1cc2c(Oc3ccc(NS(=O)(=O)c4c(Cl)cccc4Cl)cc3F)ccnc2cc1OCCCN1CCCC(C)C1` (stereo not drawn) [Example 51, 2,6-Dichloro-N-(3-fluoro-4-{6-methoxy-7-[3-(3-methyl-piperidin-1-yl)-propoxy]-quinolin-4-yloxy}-phenyl)-benzenesulfonamide] the same measures were above 6.30 and at least 4.90. Take `COc1cc2c(Oc3ccc(NS(=O)(=O)c4cccc(Cl)c4F)cc3F)ccnc2cc1OCCCN1CCCC(C)C1` (stereo not drawn) [Example 54, 3-Chloro-2-fluoro-N-(3-fluoro-4-{6-methoxy-7-[3-(3-methyl-piperidin-1-yl)-propoxy]-quinolin-4-yloxy}-phenyl)-benzenesulfonamide]: the pIC50 in assay [1] was above 6.30; with Hs578T it was at least 4.90. Consider `COc1cc2c(Oc3ccc(NS(=O)(=O)c4cc(C)ccc4F)cc3F)ccnc2cc1OCCCN1CCCC(C)C1` (stereo not drawn) [Example 55], for which the figures for the pIC50 (in assay [1]; in the assay on Hs578T) were above 6.30 and at least 4.90, respectively. As for `COc1cc2c(Oc3ccc(NS(=O)(=O)c4ccc(C)c(F)c4)cc3F)ccnc2cc1OCCCN1CCCC(C)C1` (stereo not drawn) [Example 56, 3-Fluoro-N-(3-fluoro-4-{6-methoxy-7-[3-(3-methyl-piperidin-1-yl)-propoxy]-quinolin-4-yloxy}-phenyl)-4-methyl-benzenesulfonamide], the pIC50 was above 6.30 in assay [1] and at least 4.90 in the assay on Hs578T.

Turning to `COc1cc2c(Oc3ccc(NS(=O)(=O)c4ccc(F)c(Cl)c4)cc3F)ccnc2cc1OCCCN1CCCC(C)C1` (stereo not drawn) [Example 57, 3-Chloro-4-fluoro-N-(3-fluoro-4-{6-methoxy-7-[3-(3-methyl-piperidin-1-yl)-propoxy]-quinolin-4-yloxy}-phenyl)-benzenesulfonamide], the pIC50 in assay [1] was above 6.30; in the assay with Hs578T, at least 4.90.

Consider `COc1cc2c(Oc3ccc(NS(=O)(=O)c4ccccc4C(F)(F)F)cc3F)ccnc2cc1OCCCN1CCCCC1C` (stereo not drawn) [Example 99, N-(3-Fluoro-4-{6-methoxy-7-[3-(2-methyl-piperidin-1-yl)-propoxy]-quinolin-4-yloxy}-phenyl)-2-trifluoromethyl-benzenesulfonamide], for which the pIC50 in the assay with Hs578T is at least 4.90. For `COc1cc2c(Oc3ccc(NS(=O)(=O)c4ccccc4C(F)(F)F)cc3F)ccnc2cc1OCCCN(C)C` [Example 100, N-{4-[7-(3-Dimethylamino-propoxy)-6-methoxy-quinolin-4-yloxy]-3-fluoro-phenyl}-2-trifluoromethyl-benzenesulfonamide], the pIC50 with Hs578T was at least 4.90. On to `COc1cc2c(Oc3cccc(NS(=O)(=O)c4ccccc4C(F)(F)F)c3)ccnc2cc1OCCCN1CCN(C)CC1` [Example 102, N-(3-{6-Methoxy-7-[3-(4-methyl-piperazin-1-yl)-propoxy]-quinolin-4-yloxy}-phenyl)-2-trifluoromethyl-benzenesulfonamide], for which the pIC50 with Hs578T was at least 4.90.

The record behind these values is US9169241B2, “Quinolinyloxyphenylsulfonamides” (Max-Planck-Gesellschaft Zur Forderung der Wissenschaften …, priority 2009, dated 2015).
